Values quoted from earlier work, collected in patent publication US20180271949A1, “THERAPEUTIC TREATMENT FOR NEUROTROPHIC KERATOPATHY” (priority 2017, published 2018).

What was measured:
[1] = system: corneal epithelium wound healing; conditions: with substance-P; several pre-clinical studies; Nishida 2009
decubitus ulcers = conditions: topical; Van Ort 1976
[2] = system: sub-basal plexus corneal nerves; conditions: topical; diabetic mice; Chen 2013
[3] = system: experimentally-induced superficial skin wounds; conditions: topical; diabetic and non-diabetic individuals; Greenway 1999
[4] = system: cultured sheets of corneal epithelial cells; conditions: Shanley 2004
corneal abrasions = conditions: topical, diabetic rats
corneal ulcers = conditions: systemic administration; humans; Aynsley 1945

Substance | promotion of corneal epithelium wound healing [1] | healing of decubitus ulcers (decubitus ulcers) | loss of sub-basal plexus corneal nerves [2] | healing of experimentally-induced superficial skin wounds [3] | cell migration and closure of artificial wounds [4] | corneal sensation (corneal abrasions; Zagon 2007) | wound healing after corneal abrasions (corneal abrasions; Zagon 2007, Klocek 2009) | healing of corneal ulcers (corneal ulcers)
IGF-1: Insulin-like growth factor-1, modulator of corneal wound healing | act synergistically with substance-P |  |  |  |  |  |  | 
insulin: insulin, topical, systemic or added in vitro, as used in cited literature studies |  | improve healing | slow the loss | improve healing | promoted cell migration and closure of artificial wounds | improves corneal sensation | improves wound healing | improved healing
